In ChEMBL document CHEMBL3885861, “Open TG-GATES”:

Species: Rattus norvegicus
Assay: Open TG-GATES - Regimen: Daily Repeat
Type: toxicity, organism-based, Sprague-Dawley
Parameters: regimen Daily Repeat, gender Male, age 6 weeks
Conditions: in vivo, po, 0 mg/kg, route gavage, dose level Control; for APTT / Bas / Eos / Fbg / Hb / Ht / Lym / MCH / MCHC / MCV / Mono / Neu / PT / Plat / RBC / Ret / WBC: tissue Blood; for KIDNEY_L / KIDNEY_R / KIDNEY_TOTAL: tissue Kidney; for LIVER: tissue Liver; for A/G / ALP / ALT / AST / BUN / CRE / Ca / Cl / DBIL / GLC / IP / K / LDH / Na / PL / RALB / TBIL / TC / TG / TP / gamma-GTP: tissue Plasma

In the case of CN1C(=O)CCS(=O)(=O)C1c1ccc(Cl)cc1 (configuration not stated) [CHLORMEZANONE], the TERMINAL_BW (72 h, time 3 day) is reported as 227.8 g, the APTT (72 h, time 3 day) is reported as 15.7 s and the Bas (72 h, time 3 day) is reported as 0%. For the same molecule, the Eos (72 h, time 3 day) was 1%, the Fbg (72 h, time 3 day) was 283.6 mg/dL and the Hb (72 h, time 3 day) was 13.4 g/dL. For the same molecule, the Ht (72 h, time 3 day) was 39.1%, the Lym (72 h, time 3 day) was 77.8% and the MCH (72 h, time 3 day) was 22.1 pg. For the same molecule, the MCHC (72 h, time 3 day) was 34.4%, the MCV (72 h, time 3 day) was 64.3 fL and the Mono (72 h, time 3 day) was 3%. For the same molecule, the Neu (72 h, time 3 day) was 17.8%, the PT (72 h, time 3 day) was 12 s and the Plat (72 h, time 3 day) was 114.7 x10_4/uL. The RBC (72 h, time 3 day) was 608.2 x10_4/ul, the Ret (72 h, time 3 day) was 6.7% and the WBC (72 h, time 3 day) was 81.1 x10_2/uL. It also gave a KIDNEY_L (72 h, time 3 day) of 0.9 g, a KIDNEY_R (72 h, time 3 day) of 0.9 g and a KIDNEY_TOTAL (72 h, time 3 day) of 1.8 g. The LIVER (72 h, time 3 day) was 10.6 g, the A/G (72 h, time 3 day) was 0.9 and the ALP (72 h, time 3 day) was 1545.4 IU/L. It also gave an ALT (72 h, time 3 day) of 48.4 IU/L, an AST (72 h, time 3 day) of 68.2 IU/L and a BUN (72 h, time 3 day) of 14.6 mg/dL. It also gave a CRE (72 h, time 3 day) of 0.2 mg/dL, a Ca (72 h, time 3 day) of 10.9 mg/dL and a Cl (72 h, time 3 day) of 108.4 meq/L. For the same molecule, the DBIL (72 h, time 3 day) was 0.01 mg/dL, the GLC (72 h, time 3 day) was 193.6 mg/dL and the IP (72 h, time 3 day) was 6.7 mg/dL. For the same molecule, the K (72 h, time 3 day) was 4.2 meq/L, the LDH (72 h, time 3 day) was 63.4 IU/L and the Na (72 h, time 3 day) was 143.4 meq/L. For the same molecule, the PL (72 h, time 3 day) was 148.4 mg/dL, the RALB (72 h, time 3 day) was 2.7 g/dL and the TBIL (72 h, time 3 day) was 0.026 mg/dL. The TC (72 h, time 3 day) was 88.8 mg/dL, the TG (72 h, time 3 day) was 90 mg/dL and the TP (72 h, time 3 day) was 5.8 g/dL. For the same molecule, the gamma-GTP (72 h, time 3 day) was 1.2 IU/L, the TERMINAL_BW ([…], time 7 day) was 269.2 g and the TERMINAL_BW ([…], time 14 day) was 301.6 g. For the same molecule, the TERMINAL_BW ([…], time 28 day) was 393 g, the APTT ([…], time 7 day) was 17.6 s and the Bas ([…], time 7 day) was 0%. It also gave an Eos ([…], time 7 day) of 0.8%, a Fbg ([…], time 7 day) of 294.6 mg/dL and a Hb ([…], time 7 day) of 13.9 g/dL. The Ht ([…], time 7 day) was 41%, the Lym ([…], time 7 day) was 79.4% and the MCH ([…], time 7 day) was 22.1 pg. For the same molecule, the MCHC ([…], time 7 day) was 33.9%, the MCV ([…], time 7 day) was 65.3 fL and the Mono ([…], time 7 day) was 2.4%. The Neu ([…], time 7 day) was 16.6%, the PT ([…], time 7 day) was 11.9 s and the Plat ([…], time 7 day) was 113.1 x10_4/uL. It also gave an RBC ([…], time 7 day) of 627.6 x10_4/ul, a Ret ([…], time 7 day) of 6.5% and a WBC ([…], time 7 day) of 91.2 x10_2/uL. It also gave an APTT ([…], time 14 day) of 16.9 s, a Bas ([…], time 14 day) of 0% and an Eos ([…], time 14 day) of 1%. The Fbg ([…], time 14 day) was 306.8 mg/dL, the Hb ([…], time 14 day) was 14.5 g/dL and the Ht ([…], time 14 day) was 41.2%. For the same molecule, the Lym ([…], time 14 day) was 76.2%, the MCH ([…], time 14 day) was 20.7 pg and the MCHC ([…], time 14 day) was 35.3%. The MCV ([…], time 14 day) was 58.8 fL, the Mono ([…], time 14 day) was 2% and the Neu ([…], time 14 day) was 20.4%. It also gave a PT ([…], time 14 day) of 11.8 s, a Plat ([…], time 14 day) of 123 x10_4/uL and an RBC ([…], time 14 day) of 701 x10_4/ul. It also gave a Ret ([…], time 14 day) of 3.5%, a WBC ([…], time 14 day) of 70.8 x10_2/uL and an APTT ([…], time 28 day) of 17.9 s. It also gave a Bas ([…], time 28 day) of 0%, an Eos ([…], time 28 day) of 1% and a Fbg ([…], time 28 day) of 293.6 mg/dL. The Hb ([…], time 28 day) was 15 g/dL, the Ht ([…], time 28 day) was 42.2% and the Lym ([…], time 28 day) was 75.4%. It also gave an MCH ([…], time 28 day) of 20.2 pg, an MCHC ([…], time 28 day) of 35.5% and an MCV ([…], time 28 day) of 56.8 fL. The Mono ([…], time 28 day) was 2.4%, the Neu ([…], time 28 day) was 20.6% and the PT ([…], time 28 day) was 11.8 s. For the same molecule, the Plat ([…], time 28 day) was 99.4 x10_4/uL, the RBC ([…], time 28 day) was 744.8 x10_4/ul and the Ret ([…], time 28 day) was 2.6%. It also gave a WBC ([…], time 28 day) of 82.8 x10_2/uL, a KIDNEY_L ([…], time 7 day) of 1 g and a KIDNEY_R ([…], time 7 day) of 1 g. It also gave a KIDNEY_TOTAL ([…], time 7 day) of 2.1 g, a KIDNEY_L ([…], time 14 day) of 1.2 g and a KIDNEY_R ([…], time 14 day) of 1.1 g. The KIDNEY_TOTAL ([…], time 14 day) was 2.3 g, the KIDNEY_L ([…], time 28 day) was 1.4 g and the KIDNEY_R ([…], time 28 day) was 1.3 g. It also gave a KIDNEY_TOTAL ([…], time 28 day) of 2.7 g, an LIVER ([…], time 7 day) of 13 g and an LIVER ([…], time 14 day) of 12.6 g. For the same molecule, the LIVER ([…], time 28 day) was 16 g, the A/G ([…], time 7 day) was 0.9 and the ALP ([…], time 7 day) was 1745 IU/L. For the same molecule, the ALT ([…], time 7 day) was 44 IU/L, the AST ([…], time 7 day) was 68.2 IU/L and the BUN ([…], time 7 day) was 16.6 mg/dL. The CRE ([…], time 7 day) was 0.2 mg/dL, the Ca ([…], time 7 day) was 11.6 mg/dL and the Cl ([…], time 7 day) was 107.8 meq/L. For the same molecule, the DBIL ([…], time 7 day) was 0.016 mg/dL, the GLC ([…], time 7 day) was 181.4 mg/dL and the IP ([…], time 7 day) was 6.9 mg/dL. For the same molecule, the K ([…], time 7 day) was 4.3 meq/L, the LDH ([…], time 7 day) was 89.8 IU/L and the Na ([…], time 7 day) was 144 meq/L. The PL ([…], time 7 day) was 152 mg/dL, the RALB ([…], time 7 day) was 2.8 g/dL and the TBIL ([…], time 7 day) was 0.034 mg/dL. It also gave a TC ([…], time 7 day) of 82.6 mg/dL, a TG ([…], time 7 day) of 121.6 mg/dL and a TP ([…], time 7 day) of 6 g/dL. For the same molecule, the gamma-GTP ([…], time 7 day) was 1 IU/L, the A/G ([…], time 14 day) was 0.8 and the ALP ([…], time 14 day) was 1484.4 IU/L. The ALT ([…], time 14 day) was 48 IU/L, the AST ([…], time 14 day) was 63.8 IU/L and the BUN ([…], time 14 day) was 14.4 mg/dL. The CRE ([…], time 14 day) was 0.2 mg/dL, the Ca ([…], time 14 day) was 11.2 mg/dL and the Cl ([…], time 14 day) was 107.8 meq/L. For the same molecule, the DBIL ([…], time 14 day) was 0.008 mg/dL, the GLC ([…], time 14 day) was 191.6 mg/dL and the IP ([…], time 14 day) was 6.3 mg/dL. The K ([…], time 14 day) was 4 meq/L, the LDH ([…], time 14 day) was 47 IU/L and the Na ([…], time 14 day) was 143.6 meq/L. It also gave a PL ([…], time 14 day) of 136.4 mg/dL, an RALB ([…], time 14 day) of 2.8 g/dL and a TBIL ([…], time 14 day) of 0.064 mg/dL. For the same molecule, the TC ([…], time 14 day) was 70.8 mg/dL, the TG ([…], time 14 day) was 74.8 mg/dL and the TP ([…], time 14 day) was 6.1 g/dL. For the same molecule, the gamma-GTP ([…], time 14 day) was 1 IU/L, the A/G ([…], time 28 day) was 0.8 and the ALP ([…], time 28 day) was 1035.2 IU/L. For the same molecule, the ALT ([…], time 28 day) was 45.6 IU/L, the AST ([…], time 28 day) was 62.8 IU/L and the BUN ([…], time 28 day) was 14 mg/dL. For the same molecule, the CRE ([…], time 28 day) was 0.3 mg/dL, the Ca ([…], time 28 day) was 10.8 mg/dL and the Cl ([…], time 28 day) was 106.2 meq/L. It also gave a DBIL ([…], time 28 day) of 0.006 mg/dL, a GLC ([…], time 28 day) of 183.2 mg/dL and an IP ([…], time 28 day) of 6 mg/dL. The K ([…], time 28 day) was 4 meq/L, the LDH ([…], time 28 day) was 57 IU/L and the Na ([…], time 28 day) was 142.4 meq/L. For the same molecule, the PL ([…], time 28 day) was 143.6 mg/dL, the RALB ([…], time 28 day) was 2.8 g/dL and the TBIL ([…], time 28 day) was 0.062 mg/dL. It also gave a TC ([…], time 28 day) of 74.8 mg/dL, a TG ([…], time 28 day) of 88 mg/dL and a TP ([…], time 28 day) of 6.3 g/dL. The gamma-GTP ([…], time 28 day) was 1 IU/L.
